The values that follow come from paper PMC9025851, “Polyphenolic Compounds from Lespedeza bicolor Protect Neuronal Cells from Oxidative Stress” (Antioxidants, 2022).

Where two headings read alike, the source gives them in different places.

Series [1] deals with 6-OHDA-treated Neuro-2a cells. Put plainly: ROS level in 6-OHDA-treated cells (H2DCF-DA). The format is cell-based, murine. The settings on record: 6-OHDA 80 µM; for Effect on ROS levels in 6-OHDA-treated cells: 1 h, H2DCF-DA. As for the experimental part:
(§1) After 24 h of adhesion, Neuro-2a cells (1 × 10^4 cells/well) were incubated with compounds (0.01–10 µM) for 1 h. Then, we added rotenone (10 μM), 6-OHDA (80 μM), or PQ (1 mM) to each well and incubated cells for 1 h, 1 h, or 3 h, respectively. To evaluate the level of intracellular ROS, we added 20 µL of 2,7-dichlorodihydrofluorescein diacetate solution ([…], H2DCF-DA, Molecular Probes, Eugene, OR, USA) to each well, so that the final concentration was 10 µM, and incubated the microplate at 37 °C for an additional 30 min. Quercetin was used as a reference compound.

In series [2] the test system is 6-OHDA-treated Neuro-2a cells. In words: 6-OHDA-induced neurotoxicity, cell viability (MTT). Conditions: 6-OHDA 80 µM, p < 0.05. The series is classed as cell-based, murine. As for the experimental part: (§2) After 24 h of adhesion, Neuro-2a cells (1 × 10^4 cells/well) were treated with polyphenolic compounds at concentrations of 0.01–10 μM for 1 h. Subsequently, 1 mM of PQ, 10 μM rotenone or 80 μM of 6-OHDA (Sigma-Aldrich, St. Louis, MO, USA) were added. We used MTT assay to determine the percentage of living cells (cell viability) after 24 h of incubation. Cells incubated without inductors or with inductors were used as positive and negative control, respectively. The results are presented as percentages of the positive control value.

On the set-up of series [3]: method as in PMID 31004693. Conditions: 30 min; mean ± SEM, n = 3; previously published; read-out: DPPH-Scavenging Effect SC50; cited from earlier work.
The subject of series [4] is PQ-treated Neuro-2a cells. Put plainly: Mitochondrial membrane potential (TMRM) in PQ-treated cells. The series is classed as cell-based, murine. Conditions: compound 10 µM; PQ-treated Neuro-2a, TMRM. As for the experimental part: The cells were incubated for 1 h in a 96-well plate (1 × 10^4 cells/well) with polyphenolic compounds (1 and 10 µM). Then, PQ (500 µM) was added, and the cell suspension was incubated for 1 h. Cells incubated without PQ and compounds were used as positive control, and cells with PQ alone were used as negative control. We added the tetramethylrhodamine methyl (TMRM) (Sigma-Aldrich, St. Louis, MO, USA) solution (500 nM) to each well, and incubated cells for 30 min at 37 °C. After the incubation, we measured the intensity of fluorescence with a PHERAstar FSplate reader (BMG Labtech, Ortenberg, Germany) at λex = 540 nm and λem = 590 nm. We processed the data using MARS Data Analysis v3.01R2 (BMG Labtech, Ortenberg, Germany) and presented results as percentages of the positive control value.

Series [5] deals with PQ-treated Neuro-2a cells. Put plainly: PQ-induced neurotoxicity, cell viability (MTT). The format is cell-based, murine. The settings on record: PQ 1 mM; for Effect on percentage of living cells after treatment with PQ: compounds 0.01–10 μM, 1 h pre-treatment, MTT after 24 h. As for the experimental part: as §2
Series [6] in a line: Cytotoxicity, MTT assay. The format is cell-based, murine. Conditions: mouse, Neuro-2a neuroblastoma cells, read-out: Cytotoxic activity EC50. As for the experimental part:
The murine neuroblastoma cell line Neuro-2a (CCL-131) was purchased from American Type Culture Collection (ATCC®) (Manassas, VA, USA). Cells were cultured in Dulbecco’s Modified Eagle Medium (Biolot, St. Petersburg, Russia). The medium contained 10% fetal bovine serum (Biolot, St. Petersburg, Russia) and 1% penicillin/streptomycin (Biolot, St. Petersburg, Russia). Cells were incubated at 37 °C in a humidified atmosphere containing 5% (v/v) CO2.
Stock solutions of polyphenolic compounds were prepared in DMSO at a concentration of 10 mM. […]
We incubated Neuro-2a cells (1 × 10^4 cells/well) at 37 °C in a CO2 incubator for 24 h until they formed an adherent monolayer. Then, 20 μL of the tested solution was loaded onto the cells and incubated for 24 h. After incubation, the medium containing the polyphenolic test compounds was replaced by 100 μL of fresh medium. Then, we added 10 μL of MTT (3-(4,5-dimethylthiazol-2-yl)-2,5-diphenyltetrazolium bromide) (Sigma-Aldrich, St. Louis, MO, USA) stock solution (5 mg/mL) to each well and incubated the microplate for 4 h. Then, 100 μL of SDS-HCl solution (1 g SDS/10 mL dH2O/17 μL 6 M HCl) was added to each well, followed by incubation for 18 h. We measured the absorbance of the converted dye formazan on a Multiskan FC microplate photometer (Thermo Scientific, Waltham, MA, USA) at a wavelength of 570 nm. We performed all experiments in triplicate and expressed the cytotoxic activity as percent of living cells.
(Formazan colour is commonly taken as a measure of viable cells.)

Details of series [7]: method as in PMID 31004693. Conditions: mean ± SEM, n = 3; previously published; cited from earlier work.
The subject of series [8] is esophageal squamous cell carcinoma Kyse-30. Also on record: method as in PMID 32087226. The settings on record: cited from earlier work.
The subject of series [9] is retina pigmented epithelium cells RPE-1. More on the design: method as in PMID 32087226. The settings on record: RPE-1 normal cell line; cited from earlier work.
Series [10] has as its system human triple-negative breast cancer HTB-19. Also on record: method as in PMID 32087226. The settings on record: cited from earlier work.
Series [11] concerns hepatocellular carcinoma HEPG-2. More on the design: method as in PMID 32087226. Conditions: cited from earlier work.
The test system of series [12] is human embryonic kidney cells HEK-293. Also on record: method as in PMID 32087226. Conditions: HEK-293 normal cell line; cited from earlier work.
A short description of series [13]: DPPH radical-scavenging effect. Conditions: 30 min; DPPH• 10^−4 M in MeOH; mean ± SEM, n = 3; read-out: DPPH-Scavenging Effect SC50. As for the experimental part: The 2,2-diphenyl-1-picrylhydrazyl (DPPH^•) radical-scavenging effect of polyphenolic compounds 7–11 was determined as described in [24]. Polyphenolic compounds 7, 8, 9, 10, and 11 were added to DPPH^• solution in MeOH (10^−4 M) at concentrations from 6 to 34 µM. The reacting mixture was kept in the dark for 30 min at room temperature. Then, we measured the absorbance at 517 nm using a Shimadzu UV 1240 spectrophotometer (Shimadzu, Kyoto, Japan). Equation (1) was used to calculate the DPPH^• radical-scavenging effect (%):(1) DPPH^• scavenging effect,%=A0−Ax/A0 where A0 is the absorbance of DPPH^• solution of a blank sample (without polyphenolic compounds); AX is the absorbance of DPPH^• solution in the presence of different concentrations of polyphenolic compounds.
Quercetin was used as a reference compound. All experiments were performed in triplicate. We calculated the half-maximal scavenging concentration (SC50) for polyphenolic compounds by plotting the DPPH^• scavenging effect (%) against the concentrations of polyphenolic compounds. SC50 values are given as the mean value ± SEM.
(In general: DPPH is a stable violet radical that fades when it is reduced.)

For series [14], the system named is rotenone-treated Neuro-2a cells. Put plainly: ROS level in rotenone-treated cells (H2DCF-DA). Conditions: rotenone 10 µM, 1 h. The format is cell-based, murine. As for the experimental part:
as §1

Series [15] shares this test system. In words: Rotenone-induced neurotoxicity, cell viability (MTT). The format is cell-based, murine. Conditions: for Increase in percentage of living cells after treatment with rotenone compared to rotenone-treated cells: rotenone 10 µM, MTT, p < 0.05. As for the experimental part: as §2
Series [16] can be described thus: Ferric reducing antioxidant power (FRAP) assay. Conditions: 4 min, absorbance 595 nm; mean ± SEM, n = 3. As for the experimental part: We performed the FRAP assay as described in [29]. We prepared the FRAP reagent by mixing 2.5 mL of TPTZ (2,4,6-tris(2-pyridyl)-s-triazine) solution (10 mM) in 40 mM HCl and 25 mL of FeCl3 solution (20 mM) in acetate buffer solution (300 mM, pH 3.6). Polyphenolics 7–11 were added to 3 mL of FRAP reagent at concentrations from 6 to 34 µM. The mixture was kept in the dark at room temperature for 4 min. Then, we measured the absorbance at 595 nm using a Shimadzu UV 1240 spectrophotometer. Equation (2) was used to calculate the FRAP values for polyphenolic compounds 7–11:(2) FRAP=CFe/Cx where CFe is the concentration of Fe^2+ (µM) formed in the reaction; CX is the concentration of polyphenolic compounds in the reacting mixture.
The concentration of Fe^2+ (µM) formed in the reaction was determined using the calibration curve obtained for different concentrations of FeSO4·7H2O.

Series [17] relates to 6-OHDA-exposed worms. Also on record: method as in PMID 32585871. The settings on record: cited from earlier work.
For series [18], the system named is α-synuclein. More on the design: method as in PMID 32585871. Conditions: cited from earlier work.
The test system of series [19] is 5-lipoxygenase. More on the design: method as in PMID 28506902. The settings on record: cited from earlier work.
For series [20], the system named is MAO-A. More on the design: method as in PMID 27575476, PMID 32087226. The settings on record: cited from earlier work.
Series [21] concerns MAO-B. Also on record: method as in PMID 27575476, PMID 32087226. The settings on record: cited from earlier work.
Series [22] relates to RAW 264.7 macrophages. More on the design: method as in PMID 25592708. The settings on record: cited from earlier work.

As to `CC(C)=CCC[C@]1(C)C=Cc2c(c(O)cc3c2O[C@H]2c4ccc(O)cc4OC[C@@H]32)O1` [Compound 3, 6aR,11aR,3′R-6a,11a-dihydrolespedezol A3], in series [1], the “Decrease of ROS level compared to 6-OHDA-treated cells” value is given as 4.5 times and the “Effect on ROS levels in 6-OHDA-treated cells” value is given as “significantly decreased”. In addition, the “Increase in percentage of living cells after 6-OHDA treatment versus 6-OHDA-treated cells” value in series [2] turned out to be 12.9%. Also, in [3], the EC50 was 23.7 ± 2.1 µM. Besides, the “Increase in mitochondrial membrane potential” value in [4] was found to be 16%. Moreover, in [5], the “Effect on percentage of living cells after treatment with PQ” value was “significantly increased”. The “Increase in percentage of living cells after treatment with PQ” value in series [5] (compound 10 μM, MTT) stood at 8%. In addition, in series [6], the EC50 at 24 h was 44 µM. Moreover, in series [7], the FRAP was 1.60 ± 0.08 mol (Fe^2+)/mol (polyphenolic compound X).

Turning to `CC(C)=CCC/C(C)=C/Cc1c(O)c(O)cc2c3c(oc12)-c1ccc(O)cc1OC3` [Compound 4, lespedezol A2], the “Effect on ROS levels in 6-OHDA-treated cells” value in series [1] was “significantly decreased”. The Cytotoxicity entry in series [8], in series [9], in [10], in series [11] and in series [12] was “rather cytotoxic” in each case. Further, in [2], the “Increase in percentage of living cells after 6-OHDA treatment versus 6-OHDA-treated cells” value was 7.0%. The EC50 in [3] was 18 ± 0.2 µM. Besides, the “Effect on percentage of living cells after treatment with PQ” value in series [5] is “did not exhibit any effect”. Moreover, in series [6], the EC50 at 24 h was found to be 76 µM. Moreover, the FRAP in [7] is reported as 2.78 ± 0.18 mol (Fe^2+)/mol (polyphenolic compound X).

As to `CC(C)=CCC[C@@]1(C)C=Cc2c(c(O)cc3c4c(oc23)-c2ccc(O)cc2OC4)O1` [Compound 9, lespedezol A3], the “Effect on ROS levels in 6-OHDA-treated cells” value in series [1] is “significantly decreased”. In addition, the EC50 in series [13] turned out to be 13.5 ± 1.2 µM. Besides, in [14], the “Effect on ROS levels in rotenone-treated cells” value is on record as “did not significantly decrease”. For the same molecule, the “Increase in percentage of living cells after 6-OHDA treatment versus 6-OHDA-treated cells” value in [2] came to 31.4%. Moreover, the “Increase in percentage of living cells after treatment with rotenone compared to rotenone-treated cells” value in series [15] was 10.4%. Besides, the EC50 at 24 h in [6] is 75 µM.

Take `CC(C)=CCC[C@@]1(C)C=Cc2c(c(O)cc3c2oc2c4ccc(O)cc4oc(=O)c32)O1` [Compound 10, lespebicoumestan A]: the “Effect on ROS levels in 6-OHDA-treated cells” value in series [1] is on record as “significantly decreased”. The FRAP in [16] is on record as 1.75 ± 0.20 mol (Fe^2+)/mol (polyphenolic compound X). Besides, in series [13], the EC50 is 22.7 ± 3.5 µM. In series [14], the “Effect on ROS levels in rotenone-treated cells” value was “did not significantly decrease”. The “Increase in percentage of living cells after 6-OHDA treatment versus 6-OHDA-treated cells” value in [2] worked out at 10.9%. The “Increase in percentage of living cells after treatment with rotenone compared to rotenone-treated cells” value in series [15] is 13.2%. Further, in series [6], the EC50 at 24 h was 44 µM.

With `Oc1ccc2c(c1)OC[C@H]1c3cc4c(cc3O[C@@H]21)OCO4` [maackiain], in [17], the Dopaminergic neuron damage result is “significantly reduce”. Also, the “Accumulation of α-synuclein” value in [18] is given as “diminish”. Also, the “Inhibition of 5-lipoxygenase” value in series [19] is “inhibited”. For the same molecule, the “Inhibition of MAO-A” value in series [20] is “did not effectively inhibit”. Further, in [21], the “Inhibition of MAO-B” value was “selectively inhibited”. Moreover, the “LPS-induced nitric oxide production” value in series [22] is “inhibitory effects”.

Turning to `C=C(C)[C@H]1Cc2c(ccc3c2O[C@@H]2COc4cc(OC)c(OC)cc4[C@@H]2C3=O)O1` [rotenone, reference compound], the “Percentage of living Neuro-2a cells compared to the control” value in [15] (rotenone 10 µM alone) worked out at 68%.
